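Cultured in 96-well plates, cells were exposed to test compound for 48 hours across five concentrations. TGI: concentration producing complete growth inhibition.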
Tested on: SN12K1 renal
Experiment: NCI tumour cell line growth inhibition, 48 h

COc1ccccc1/C=C1\CCC(CN(C)C)C1=O (stereo unspecified)
TGI: 4.4 µM

Reference: PubChem BioAssay (NCI)
